Measured values published in patent US4808621A, “Trans-6-[2-(N-heteroaryl-3,5-disubstituted)pyrazol-4-yl)-ethyl]- or ethenyl]tetrahydro-4-hydroxypyran-2-one inhibitors of cholesterol biosynthesis” (Warner-Lambert Company, priority 1987, dated 1989).

Columns and labels:
[1] = biological target: T1, HMG-CoA reductase (Rattus norvegicus, UniProt P51639); test: COR screen: conversion of 14C-HMG-CoA to 14C-mevalonate by purified HMG-CoA reductase; format: biochemical; conditions: purified enzyme preparation of HMG-CoA reductase, 14C-HMG-CoA converted to 14C-mevalonate
T1 sequence (P51639 1-887): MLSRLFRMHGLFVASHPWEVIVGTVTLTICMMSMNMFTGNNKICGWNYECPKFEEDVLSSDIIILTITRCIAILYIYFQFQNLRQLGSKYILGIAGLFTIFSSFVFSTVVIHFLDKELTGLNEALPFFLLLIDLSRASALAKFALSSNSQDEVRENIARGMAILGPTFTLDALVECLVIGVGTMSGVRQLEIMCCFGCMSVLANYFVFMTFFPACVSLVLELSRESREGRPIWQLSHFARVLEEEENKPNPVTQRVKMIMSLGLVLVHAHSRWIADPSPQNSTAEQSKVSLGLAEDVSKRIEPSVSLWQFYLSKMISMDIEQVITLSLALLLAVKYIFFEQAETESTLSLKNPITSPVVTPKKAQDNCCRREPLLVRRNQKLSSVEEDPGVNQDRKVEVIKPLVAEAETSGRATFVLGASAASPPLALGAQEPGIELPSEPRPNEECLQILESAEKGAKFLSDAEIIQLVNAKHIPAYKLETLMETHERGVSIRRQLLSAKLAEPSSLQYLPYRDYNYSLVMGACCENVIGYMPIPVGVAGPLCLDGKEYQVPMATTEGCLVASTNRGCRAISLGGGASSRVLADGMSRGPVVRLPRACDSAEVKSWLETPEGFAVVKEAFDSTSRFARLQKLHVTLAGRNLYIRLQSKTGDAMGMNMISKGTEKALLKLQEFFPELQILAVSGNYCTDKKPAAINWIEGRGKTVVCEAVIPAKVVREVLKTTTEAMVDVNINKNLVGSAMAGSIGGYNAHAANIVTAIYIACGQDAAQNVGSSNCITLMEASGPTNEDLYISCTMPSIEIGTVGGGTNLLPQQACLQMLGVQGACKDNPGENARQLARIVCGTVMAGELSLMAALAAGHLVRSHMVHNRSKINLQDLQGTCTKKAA
Method: A second method (designated COR screen) employed the procedure detailed by T. Kita, et al., J. Clin. Invest., (1980), 66: 1094-1100. In this method, the amount of ^14 C-HMG-CoA converted to ^14 C-mevalonate in the presence of a purified enzyme preparation of HMG-CoA reductase was measured. The micromolar concentration of compound required for 50% inhibition of cholesterol synthesis was measured and recorded as an IC50 value.

[2] = test system: sterol synthesis by rat liver homogenate; test: CSI screen: inhibition of incorporation of 14C-acetate into nonsaponifiable lipid by rat liver homogenate (sterol synthesis); format: biochemical; conditions: 50% inhibition of sterol synthesis over a one-hour period, liver homogenate of cholestyramine-fed rats
Method: The ability of compounds of the present invention to inhibit the biosynthesis of cholesterol was measured by two methods. A first method (designated CSI screen) utilized the procedure described by R. E. Dugan et al., Archiv. Biochem. Biophys., (1972), 152, 21-27. In this method, the level of HMG-CoA enzyme activity in standard laboratory rats is increased by feeding the rats a chow diet containing 5% cholestyramine for four days, after which the rats are sacrificed.
The rat livers are homogenized, and the incorporation of ^14 C-acetate into nonsaponifiable lipid by the rat liver homogenate is measured. The micromolar concentration of compound required for 50% inhibition of sterol synthesis over a one-hour period is measured, and expressed as an IC50 value.

IC50 [1] | IC50 [2] | Compound
0.11 µM | 0.039 µM | CC(C)c1nn(-c2ccccn2)c(-c2ccc(F)cc2)c1CC[C@H]1C[C@H](O)CC(=O)O1 (relative stereo) [Compound 1, trans-6-[2-[5-(4-fluorophenyl)-3-(1-methylethyl)-1-(2-pyridinyl)-1H-pyrazol-4-yl]ethyl]tetrahydro-4-hydroxy-2H-pyran-2-one]
– | 0.026 µM | CC[C@H](C)C(=O)O[C@H]1CCC=C2C=C[C@H](C)[C@H](CC[C@@H]3C[C@@H](O)CC(=O)O3)[C@H]21 [Compactin, reference compound]
